Assays:
ALK5 = target: T1, ALK5 (Homo sapiens, UniProt P36897); assay: ALK5 inhibition (IC50); assay type: biochemical
T1 sequence (P36897 34-503): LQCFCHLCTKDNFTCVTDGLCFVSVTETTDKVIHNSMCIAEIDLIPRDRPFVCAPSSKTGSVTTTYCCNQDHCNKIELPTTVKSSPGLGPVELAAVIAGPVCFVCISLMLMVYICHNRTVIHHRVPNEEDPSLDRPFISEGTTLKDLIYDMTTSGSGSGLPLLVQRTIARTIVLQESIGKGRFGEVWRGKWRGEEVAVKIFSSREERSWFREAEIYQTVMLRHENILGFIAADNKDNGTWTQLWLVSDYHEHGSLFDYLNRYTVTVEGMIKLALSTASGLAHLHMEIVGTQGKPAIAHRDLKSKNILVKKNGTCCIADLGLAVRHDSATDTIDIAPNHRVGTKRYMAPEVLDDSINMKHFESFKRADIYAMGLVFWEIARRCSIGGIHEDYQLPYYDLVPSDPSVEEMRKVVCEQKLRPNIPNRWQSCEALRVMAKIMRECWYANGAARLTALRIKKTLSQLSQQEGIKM

[1] = test system: glucocorticoid response element (GRE) activity; assay: GRE activity / GRE reporter in BEAS-2B cells; assay type: cell-based, human; conditions: for TGFβ1-induced suppression of the GRE activity stimulated by Dex (30 nM): PF670462 1 or 10 μM 30 min before TGFβ1 for 24 hours
Experimental: Data are presented as the means and SEM of 3 independent experiments. *P<0.05, cf corresponding Dex 30 nM response.
(§1) The methods used in Examples 1 to 5 (and 10, 19, 20) are similar to those reported in Salem et al 2012 (Br J Pharmacol. 166:2036-2048) and again in Keenan et al 2014 (Respiratory Research, e15:55) in which methods for cell culture, GRE assays and gene expression measurements are fully described. Additional methods for growth of respiratory syncytial virus (RSV) and rhinovirus (RV) are described in Collins et al 2007 (Respir Physiol Neurobiol. 2007 Jun. 15; 156(3):345-52.) and by Xatzipsalti and papdopoulos, 2007 (Contrib Microbiol. 2007; 14:33-41).

[2] = test system: GRE-dependent gene expression; assay: Glucocorticoid-induced gene expression in BEAS-2B cells; assay type: cell-based, human
Excerpt: as §1
Data are presented as the means and SEM of 4 independent experiments. *P<0.05, cf corresponding Dex 30 nM response. […] Thus, TNFα contribution to glucocorticoid resistance, may be independent of TGFβ. The resistance is exemplified by the epithelial sodium channel alpha subunit SCNN1a which assembles into a Na channel that is thought to contribute to water reabsorption from the airspaces that are flooded during acute lung injury.
TGFβ suppression ranged in magnitude amongst the genes selected for analysis. […] TGFβ and Dex synergise in increasing the expression of PAI-1 (FIG. 24B).

[3] = test system: primary human airway epithelial cells; assay: Dex-induced gene expression in ALI-differentiated primary human airway epithelial cells; assay type: cell-based; conditions: 3 and 10 μM
Excerpt: as §1
These studies were undertaken in ALI-differentiated culture of primary human airway epithelial cells.

GC responsive genes = assay: Topical (intranasal) PF670462 in naïve Balb/c mice, lung gene expression; assay type: in vivo; conditions: naïve Balb/C female mice; PF670462 0.6 μg intranasal 4 and 24 hours before post mortem
RSV [4] = assay: 5 day model of RSV infection, treatments from day 1; assay type: in vivo, mice
bleomycin-treated mice = test system: bleomycin-treated mice
Excerpt: Bleomycin is commonly used in mice to model pulmonary fibrosis. This anti-cancer agent is known to induce pulmonary fibrosis in a subset of patients. […] Eventually the intensity of the fibrosis declines but never fully resolves. Early treatment in the model (during the first 3 days) may influence the outcome via anti-inflammatory effects (Limjunyawong et al. (2014) Physiol Rep. 2(2): e00249). Delayed treatment is used to specifically examine impact on the fibrogenic process.

GRE-regulated genes = assay: PF670462 aerosol exposure of Balb/C mice, lung gene expression; assay type: in vivo; conditions: Balb/C female mice; aerosol 0.03-10 mg/ml, 7 min, 24 and 4 hours before harvest
Excerpt: […] and GILZ are known to exert anti-inflammatory actions in by suppression of the master pro-inflammatory transcription factor, NFκB.

HDM allergen = assay: House dust mite (HDM) allergen challenge in mice; assay type: in vivo
Experimental: (§2) The conduct of the house dust mite allergy model with RSV complication was conducted as described herein and using the approaches described in Fuchs and Braun 2008 (Curr Drug Targets. 2008 June; 9(6):495-502).

RSV [5] = assay: HDM allergen challenge with RSV infection in mice; assay type: in vivo; conditions: HDM allergen challenged mice infected with 2 million RSV virions 3 days prior to post mortem
Experimental: as §2

[6] = BEAS-2B, Dex 100 nM, PF670462 1-10 μM prior incubation
[7] = FIG. 6A, BEAS-2B, SB431542 1 μM, PF670462 10 μM
[8] = 3-day bleomycin, female mice, PF670462 30 mg/kg ip
[9] = 14 days bleomycin, PF670462 30 mg/kg/day delayed until day 3
[10] = 21 day bleomycin, female mice, PF670462 daily from day 8 until day 21
[11] = 21 day bleomycin, female mice, PF670462 day 8 to 21

Nc1nccc(-c2c(-c3ccc(F)cc3)ncn2C2CCCCC2)n1 [PF670462]
IC50 (ALK5): 1160 nM | maximum effect of the glucocorticoid (budesonide, dexamethasone 1-100 nM) on GRE reporter construct ([1]; BEAS 2B cells, PF670462 0.3-10 μM): concentration dependently increased | TGFβ1-induced suppression of the GRE activity stimulated by Dex (30 nM) ([1]; BEAS-2B cells): concentration-dependently attenuated | TGFβ1-induced suppression of the GRE activity stimulated by Dex (30 nM) ([1]; BEAS-2B cells, listed as PF674062): prevents | impairment of Dexamethasone 30 nM GRE responses by Rhinovirus (RV16) infection ([1]; BEAS-2B cells, RV16 0.1 or 1.0 MOI, SB431542 1 μM): prevented | Suppression of glucocorticoid-induced GRE responses to Dex (30 nM) induced by the combination TNFα, IL-13 and IL-4 ([1]; BEAS-2B cells, cytokines each at 1 or 10 ng/ml, PF670462 1 or 10 μM): attenuated | suppression of Dex (30 nM) gene expression response (SCNN1a) induced by IL-13/IL-4 ([2]; BEAS-2B cells, IL-13/IL-4 at 10 ng/ml, PF670462 1 or 10 μM, SB431542 1 μM): partially attenuated | RSV-induced impairment of Dexamethasone ZBTB16 gene expression responses ([2]; BEAS-2B cells, RSV 0.1 or 1.0 MOI, pretreatment): prevented | impairment of Dexamethasone 30 nM GILZ gene expression responses by RV16 infection ([2]; BEAS-2B cells, RV16 1.0 MOI, pretreatment): greatly diminished | TGFβ1 induced suppression of gene expression responses to Dex (30 nM), exemplified by SCNN1a expression ([2]; BEAS-2B cells, TGFβ1 24 hours, PF670462 1 or 10 μM): concentration dependently attenuated | suppression of Dex (30 nM) gene expression response (SCNN1a) induced by the combination TNFα, IL-13 and IL-4 ([2]; BEAS-2B cells, each at 0.1 ng/ml, PF670462 1 or 10 μM, SB431542 1 μM): partially attenuated | TGFβ suppression of glucocorticoid-induced CDKN1C (p57kip2) expression ([2]; BEAS-2B, Dex 100 nM, PF670462 1-10 μM): unaffected | TGFβ suppression of Dex-induced expression of FKBP5 [2, 6]: prevented | TGFβ suppression of Dex-induced expression of GILZ [2, 6]: prevented | TGFβ suppression of Dex-induced expression of SCNNIA (ENaCα) [2, 6]: prevented | TGFβ suppression of Dex-induced expression of ZBTB16 (PLZF) [2, 6]: prevented | increase in expression of PAI-1 by TGFβ and Dex ([2]; BEAS-2B, FIG. 24B, PF670462 1-10 μM): concentration-dependently reduced | levels of GILZ in RV infected cells [2, 7]: increased | levels of GILZ in uninfected cells [2, 7]: but not in uninfected cells | RV infection-induced decrease of Dex-induced GILZ expression ([2]; FIG. 6B, BEAS-2B, SB431542 3 μM, PF670462 3 μM): prevented | TGFβ suppression of (Dex 30 nM)-induced expression of SCNNIA [3]: prevented | TGFβ suppression of (Dex 30 nM)-induced expression of ZBTB16 [3]: prevented | effect on the GC responsive genes in lung tissue (GC responsive genes): direct stimulatory effect | Levels of IFN β (RSV [4]): enhanced | Levels of IFN λ 2 (RSV [4]): enhanced | Levels of IFN λ 3 (RSV [4]): enhanced | TNFα expression in BAL cells when added to Dex treatment (RSV [4]): further effect | accumulation of inflammatory cells in the BAL fluid (RSV [4]; administered from day 1): reduced | TNFα expression levels in BAL cells (RSV [4]; agent alone): directly suppresses | Bleomycin induction of CTGF in lung tissue (bleomycin-treated mice; [8]): significantly reduced | Bleomycin induction of Col1a in lung tissue (bleomycin-treated mice; [8]): significantly reduced | Bleomycin induction of PAI-1 in lung tissue (bleomycin-treated mice; [8]): significantly reduced | Bleomycin induction of TIMP1 in lung tissue (bleomycin-treated mice; [8]): significantly reduced | BAL protein levels (bleomycin-treated mice; 3-day bleomycin, female mice, PF670462 30 mg/kg ip once daily): significantly reduced | BAL cells (increase by bleomycin) (bleomycin-treated mice; 3-day bleomycin, male mice): but not in PF670462- or Dex-treated mice | Col1A expression increased by bleomycin, lung tissue (bleomycin-treated mice; 3-day bleomycin, male mice): reduced | Col3 expression increased by bleomycin, lung tissue (bleomycin-treated mice; 3-day bleomycin, male mice): reduced | IL-6 increases in response to bleomycin, lung tissue (bleomycin-treated mice; 3-day bleomycin, male mice): reduced | TIMP1 expression increased by bleomycin, lung tissue (bleomycin-treated mice; 3-day bleomycin, male mice): reduced | fibrogenesis / efficacy in the bleomycin model (bleomycin-treated mice; 4 independent studies, 3 to 21 days, male and female mice, PF670462 30 mg/kg/day, ip): able to reduce fibrogenesis | accumulation of cells on the BAL fluid (bleomycin-treated mice; [9]): significantly reduced | wet weight of the lung (bleomycin-treated mice; [9]): significantly reduced | accumulation of cells in the BAL (bleomycin-treated mice; [10]): significantly reduced | accumulation of protein in the BAL (bleomycin-treated mice; [10]): significantly reduced | increase in lung wet weight (bleomycin-treated mice; [10]): significantly reduced | expression of CTGF in the lung tissue (bleomycin-treated mice; [11]): significantly reduced | expression of interleukin-6 (IL-6) in the lung tissue (bleomycin-treated mice; [11]): significantly reduced | expression of plasminogen activation inhibitor-1 (PAI-1) in the lung tissue (bleomycin-treated mice; [11]): significantly reduced | expression of glucocorticoid regulated gene GILZ in lung (bleomycin-treated mice; 21 day experiment, equally in saline and bleomycin-treated mice): induced | lung expression of GILZ (GRE-regulated genes): dose-related increase | lung expression of ZBTB116 (GRE-regulated genes): dose-related increase | increase in the BAL protein level (HDM allergen; HDM allergen 25 μg/35 μL daily intranasal, aerosol PF670462 3 mg/ml, Budesonide 0.5 mg/ml): regulated | Lymphocyte numbers in BAL (HDM allergen; HDM allergen challenged mice, aerosol treatments): reduced | BAL cell number (RSV [5]): not significantly reduced

Source: patent publication US11975005B2, “Treatment of respiratory diseases” (TIANLI BIOTECH PTY LTD, priority 2015, dated 2024)
